Measured values reported in patent US9131691B2, “Use of amide compounds for preventing marine biofouling” (The Hong Kong University of Science and Technology, priority 2011, dated 2015).
≈ marks a conversion by molar mass, not a printed value. Like-named read-outs stand apart in the source and are kept apart here.

Legend:
Format in all cases: in vivo
H. elegans larvae = assay: inhibition of larvae settlement of H. elegans; conditions: for LC50/EC50: H. elegans, ratio >10 regarded as non-toxic; for EC50: Hydroides elegans, read-out: EC50 (larval settlement)
Procedure: (§1) The four amide compounds were tested for their abilities to inhibit larvae settlement of the H. elegans, using an experimental model of inhibition of larvae settlement H. elegans (Zhang Y., Xiao K., Qian P. Y., et al. 2D gel-based multiplexed proteomic analysis during larval development and metamorphosis of the biofouling polychaete tubeworm Hydroides elegans. Journal of proteome research. 2010, 9(9), 4851-4860). Adults of H. elegans were collected from Yung Shue O, Hong Kong (22° 25′N, 114° 16′E). The H. elegans larvae were reared according to Qian and Pechenik (Bryan P. J., Qian P. Y., Kreider J. L.; Chia F. S. Induction of larval settlement and metamorphosis by pharmacological and conspecific associated compounds in the serpulid polychaete Hydroides elegans. Marine ecology progress series. 1997, 146: 81-90; Qiu, J. W.; Qian, P. Y. Combined effects of salinity, temperature and food on early development of the polychaete Hydroides elegans. Marine ecology progress series. 1997, 152: 79-88). Briefly, they were reared for 4 days until they reach the settlement-competent stage on a diet of chrysophyte Isochrysis galbana under an aerated condition and a 15 h light/9 h dark photoperied at 25° C. Because the attachment of H. elegans larvae requires to be induced by marine biofilm (Carpizo-Ituarte and Hadfield 1998), 24-well plates were suspended in laboratory tanks supplied with running seawater for 6 days until each well of every plate had accumulated sufficient biofilm. About fifteen (15±3) competent larvae were added to each biofilmed well of a plate containing 1.0 mL test solution containing samples at known concentrations. The 24-well plates were incubated at 28° C. for 48 h under a 15 h light/9 h dark photoperied. The percentage of larvae settlement and larvae mortality was determined by counting the settled, live individuals under a dissecting microscope. Three replicates were run for each sample. The EC50 was calculated as the concentration where 50% of the larval population was inhibited to settle as compared to the control, while LC50 was calculated as the concentration where 50% of the larval population was dead. The experiment was performed in quadruplicate. The experiment results of the inhibitory effect of the four Compounds 1-4 on larvae settlement of H. elegans were shown in FIGS. 3, 6, 9, and 12, respectively.

[1] = inhibition of larvae settlement of H. elegans; conditions: Hydroides elegans (polychaete tubeworm) larvae, in vivo, H. elegans larvae, 48 h
Procedure: as §1

B. neritina larvae = assay: inhibition of larvae settlement of B. neritina; conditions: for LC50/EC50: B. neritina, ratio >10 regarded as non-toxic; for EC50: Bugula neritina, read-out: EC50 (larval settlement)
Procedure: (§2) Adult B. neritina colonies were placed in a 12 L tank filled with 8 L filtered seawater under a bright artificial light for 1 h to induce the release of their photo-tactic larvae that were able to shortly attach and metamorphose. The actively swimming larvae were collected and added to the test solutions contain different concentrations of samples in 24-well plates at about fifteen (15±3) larvae per well. They were then incubated in the dark at room temperature for 24 h before counting the number of attached and unattached larvae under a dissecting microscope. […] The experiment was performed in quadruplicate.

[2] = inhibition of larvae settlement of B. neritina; conditions: Bugula neritina (bryozoan) larvae, in vivo, B. neritina larvae, 24 h
Procedure: as §2

B. amphitrite cyprids = assay: whole plant or invertebrate; conditions: for EC50: Amphibalanus amphitrite, 48 h, read-out: EC50 (larval settlement); for LC50/EC50: B. amphitrite, ratio >10 regarded as non-toxic
Procedure: (§3) They were kept in sea water at room temperature in lab under light illumination to induce the release of nauplii larvae. These newly released nauplii were reared to the cyprid stage on a diet of Chaetoceros gracilis Schutt at 28° C. for about 3 days until they developed into cyprids, which were ready to settle. The cyprids were collected using a 120 μm mesh sieve. Each sample of the exacts was dissolved in a small amount of DMSO and then transferred into filtered seawater to make up the test solution with a known concentration. About fifteen (15±3) cyprids per well were incubated in the dark for 48 h in a 24-well plate filled with 1 ml testing solutions per well. The numbers of the settled and swimming larvae were counted under a dissecting microscope. Three replicates were run for each sample. […] The experiment was performed in quadruplicate.
as §3, with “Each compound” for “Each”, “sample” for “sample of the exacts”

in vivo = conditions: Balanus amphitrite (barnacle) cyprid larvae, in vivo, B. amphitrite cyprids, 48 h, concentration where 50% of larvae dead
Procedure: as §3
as §3, with “Each compound” for “Each”, “sample” for “sample of the exacts”

[3] = 48 h, H. elegans larvae, biofilmed wells, 48 h
[4] = B. amphitrite cyprids, concentration where 50% of larvae inhibited to settle vs control
[5] = other: immersion in test solution

| SMILES | LC50/EC50 (H. elegans larvae) | EC50 (H. elegans larvae; [3]) [µg/mL] | LC50 at 48 h [1] [µg/mL] | LC50/EC50 (B. neritina larvae) | EC50 (B. neritina larvae; 24 h, B. neritina larvae, 24 h) [µg/mL] | LC50 at 24 h [2] [µg/mL] | EC50 (B. amphitrite cyprids; [4]) [µg/mL] | LC50/EC50 (B. amphitrite cyprids) | LC50 at 48 h (in vivo) [µg/mL] | EC50 (larval settlement) (H. elegans larvae; H. elegans larvae, biofilmed wells, 48 h) [µg/mL] | EC50 (H. elegans larvae; 48 h) [µg/mL] | EC50 (B. neritina larvae; 24 h) [µg/mL] | EC50 (B. amphitrite cyprids) [µg/mL] | LC50 at 48 h [1, 5] [µg/mL] | EC50 (larval settlement) (B. neritina larvae; B. neritina larvae, 24 h) [µg/mL] | LC50 at 24 h [2, 5] [µg/mL] | LC50 at 48 h (in vivo; [5]) [µg/mL] |
| --- | --- | --- | --- | --- | --- | --- | --- | --- | --- | --- | --- | --- | --- | --- | --- | --- | --- |
| O=C(/C=C/C=C/c1ccc2c(c1)OCO2)N1CCCCC1 [Compound 2, 1-[1-oxo-5-(3′,4′-methylenedioxyphenyl)-2,4-pentadienoyl]-piperidine] | >38.5 | 1.3 ± 0.8 (≈ 4.56 µM) | > 50 | >30.3 | 1.6 ± 0.7 (≈ 5.61 µM) | > 50 | 1.4 ± 0.6 (≈ 4.91 µM) | >71.4 | > 100 | – | – | – | – | – | – | – | – |
| CC(C)CNC(=O)/C=C/C=C/CCCCCC/C=C/c1ccc2c(c1)OCO2 [Compound 4, (2E,4E,12E)-N-isobutyl-13-(3′,4′-methylenedioxyphenyl)-tridecatrienamide] | – | – | > 100 | >17.6 | – | > 100 | – | >12.1 | > 200 | >20.0 | > 20 | 5.7 ± 1.5 (≈ 14.9 µM) | 16.6 ± 2.9 (≈ 43.3 µM) | – | – | – | – |
| O=C(CCCCCC/C=C/c1ccc2c(c1)OCO2)N1CCCCC1 [Compound 1, 1-[1-oxo-9-(3′,4′-methylenedioxyphenyl)-8E-nonenyl]-piperine] | >49.5 | 1 ± 0.4 (≈ 2.91 µM) | – | >14.7 | – | – | 1.1 ± 0.3 (≈ 3.2 µM) | >86.9 | – | – | – | – | – | > 50 | 0.7 ± 0.2 (≈ 2.04 µM) | > 10 | > 100 |
| O=C(/C=C/C=C/CCc1ccc2c(c1)OCO2)N1CCCCC1 [Compound 3, 1-[1-oxo-7-(3′,4′-methylenedioxyphenyl)-2E,4E-heptadienyl]-piperine] | >13.7 | 7.3 ± 1.6 (≈ 23.3 µM) | – | >11.7 | 8.5 ± 2.1 (≈ 27.1 µM) | – | 4.2 ± 1.3 (≈ 13.4 µM) | >24.0 | – | – | – | – | – | > 100 | – | > 100 | > 100 |
